Laboratory results from patent US20250059179A1, “Heterocyclic Compounds and Methods of Use” (AMGEN INC., priority 2021, published 2025).

Legend:
[1] = biological target: His-tagged KRAS G12D protein (Homo sapiens, UniProt P01116, G12D); test: KRAS G12D TR-FRET Assay; assay type: binding; conditions: biotinylated KRPep-2d substrate, 10 μM GDP;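 note: europium anti-His antibody paired with streptavidin-d2 as FRET partners, initial 30 min incubation, then peptide 1 h and detection reagents 1 h, all at room temperature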
Chain of His-tagged KRAS G12D protein (P01116 1-188 isoform P01116-2 G12D): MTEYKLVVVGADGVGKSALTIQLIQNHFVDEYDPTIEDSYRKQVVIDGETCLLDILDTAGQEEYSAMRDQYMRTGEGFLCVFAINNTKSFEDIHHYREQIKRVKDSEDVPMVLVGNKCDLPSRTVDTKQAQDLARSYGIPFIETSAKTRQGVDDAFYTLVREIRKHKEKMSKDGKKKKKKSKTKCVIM

[2] = biological target: GDP-bound KRAS protein (aa 1-169), containing both G12D and C118A amino acid substitutions (Homo sapiens, UniProt P01116, C118A/G12D); test: KRAS G12D Coupled Nucleotide Exchange Assay; assay type: biochemical; conditions: 2 h compound pre-incubation; SOS-mediated nucleotide exchange, cRAF AlphaScreen readout;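 note: IC50 obtained by fitting the AlphaScreen signal with a four-parameter logistic curve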
Chain of GDP-bound KRAS protein (aa 1-169), containing both G12D and C118A amino acid substitutions (P01116 1-169 isoform P01116-2 G12D/C118A): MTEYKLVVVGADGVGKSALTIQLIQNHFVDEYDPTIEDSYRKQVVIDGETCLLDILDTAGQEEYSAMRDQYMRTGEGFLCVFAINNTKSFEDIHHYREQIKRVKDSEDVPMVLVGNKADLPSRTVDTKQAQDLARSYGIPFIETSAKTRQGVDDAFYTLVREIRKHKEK

Compound | IC50 [1] [nM] | Avg 2 h Coupled Exchange IC50 [2] [nM]
CN1CCC[C@H]1COc1nc(N2CCNC(=O)C2)c2cc(Cl)c(-c3cccc4sc(N)nc34)c(F)c2n1 [Example 23, 4-(7-(2-aminobenzo[d]thiazol-4-yl)-6-chloro-8-fluoro-2-(((S)-1-methylpyrrolidin-2-yl)methoxy)quinazolin-4-yl)piperazin-2-one] | 678 | 166
CN1CCC[C@H]1COc1nc(N2CCNCC2)c2cc(Cl)c(-c3ccc(C(F)(F)F)c4sc(N)nc34)c(F)c2n1 [Example 131, 4-(6-chloro-8-fluoro-2-(((S)-1-methylpyrrolidin-2-yl)methoxy)-4-(piperazin-1-yl)quinazolin-7-yl)-7-(trifluoromethyl)benzo [d]thiazol-2-amine] | 1400 | 735
CN1C[C@H](F)C[C@H]1COc1nc2c(F)c(-c3ccc(F)c4sc(N)nc34)c(Cl)cc2c(N2[C@@H]3CC[C@H]2CNC3)c1C#N [Example 160, 7-(2-amino-7-fluorobenzo[d]thiazol-4-yl)-4-((1R,5S)-3,8-diazabicyclo[3.2.1]octan-8-yl)-6-chloro-8-fluoro-2-(((2S,4R)-4-fluoro-1-methylpyrrolidin-2-yl)methoxy)quinoline-3-carbonitrile] | 882 | 578
CCN1CCC(COc2nc(N3CCNCC3)c3cc(Cl)c(-c4cccc5sc(N)nc45)c(F)c3n2)CC1 [Example 63, 4-(6-chloro-2-((1-ethylpiperidin-4-yl)methoxy)-8-fluoro-4-(piperazin-1-yl)quinazolin-7-yl)benzo[d] thiazol-2-amine] | 473 | 429
Nc1nc2c(-c3c(Cl)cc4c(N5CCNCC5)nc(OCC56CCCN5CC(F)(F)C6)nc4c3F)cccc2s1 (stereo not drawn) [Example 54, 4-(6-chloro-2-((2,2-difluorotetra-hydro-1H-pyrrolizin-7a(5H)-yl)methoxy)-8-fluoro-4-(piperazin-1-yl)quinazolin-7-yl)benzo[d] thiazol-2-amine] | 87 | 79
CC1CNCC=C1c1nc(OC[C@@H]2CCCN2C)nc2c(F)c(-c3cccc4sc(N)nc34)c(Cl)cc12 (single isomer, unassigned) [Example 146] | 4090 | 1560
Nc1nc2c(-c3c(Cl)cc4c(N5CCNCC5)nc(OCC56CCC(CC5)N6)nc4c3F)cccc2s1 [Example 75, 4-(2-(((1s,4s)-7-azabicyclo[2.2.1]heptan-1-yl)methoxy)-6-chloro-8-fluoro-4-(piperazin-1-yl)quinazolin-7-yl)benzo[d] thiazol-2-amine] | 1850 | 797
CN(C)C1CN(c2nc(N3CCNCC3)c3cc(Cl)c(-c4cccc5sc(N)nc45)c(F)c3n2)C1 [Example 67, 4-(6-chloro-2-(3-(dimethylamino)azetidin-1-yl)-8-fluoro-4-(piperazin-1-yl)quinazolin-7-yl)benzo[d] thiazol-2-amine] | 1620 | 670
Cc1cc(-c2c(Cl)cc3c(N4CCNCC4)nc(OC[C@@H]4CCCN4C)nc3c2F)c2nc(N)sc2c1 [Example 129, 4-(6-chloro-8-fluoro-2-(((S)-1-methylpyrrolidin-2-yl)methoxy)-4-(piperazin-1-yl)quinazolin-7-yl)-6-methylbenzo[d]thiazol-2-amine] | 5300 | 1090
Nc1nc2c(-c3c(Cl)cc4c(N5C[C@H]6COC[C@@H](C5)N6)nc(OC[C@@]56CCCN5C[C@H](F)C6)nc4c3F)ccc(F)c2s1 [Example 42, 4-(4-((1R,5S)-3-oxa-7,9-diazabicyclo[3.3.1]nonan-7-yl)-6-chloro-8-fluoro-2-(((2R,7aS)-2-fluorotetrahydro-1H-pyrrolizin-7a(5H)-yl)methoxy)quinazolin-7-yl)-7-fluorobenzo[d] thiazol-2-amine] | 12 | 12
C[C@@H](CN(C)C)Oc1nc(N2CCNCC2)c2cc(Cl)c(-c3cccc4sc(N)nc34)c(F)c2n1 [Example 48, 4-(6-chloro-2-(((S)-1-(dimethylamino)propan-2-yl)oxy)-8-fluoro-4-(piperazin-1-yl)quinazolin-7-yl)benzo[d] thiazol-2-amine] | 159 | 26
CN1CC(F)(F)C[C@H]1COc1nc(N2CCNCC2)c2cc(Cl)c(-c3cccc4sc(N)nc34)c(F)c2n1 [Example 65, 4-(6-chloro-2-(((S)-4,4-difluoro-1-methyl-pyrrolidin-2-yl)methoxy)-8-fluoro-4-(piperazin-1-yl)quinazolin-7-yl)benzo[d] thiazol-2-amine] | 1840 | 504
CN1CCC[C@H]1COc1nc(N2CCNC[C@@H]2CCO)c2cc(Cl)c(-c3cccc4sc(N)nc34)c(F)c2n1 [Example 36, 2-((2S)-1-(7-(2-aminobenzo[d]thiazol-4-yl)-6-chloro-8-fluoro-2-(((S)-1-methylpyrrolidin-2-yl)methoxy)quinazolin-4-yl)piperazin-2-yl)ethan-1-ol] | 5850 | 2250
CN1C[C@@H](F)C[C@H]1COc1nc(N2CCNCC2)c2cc(Cl)c(-c3cccc4sc(N)nc34)c(F)c2n1 [Example 62, 4-(6-chloro-8-fluoro-2-(((2S,4S)-4-fluoro-1-methyl-pyrrolidin-2-yl)methoxy)-4-(piperazin-1-yl)quinazolin-7-yl)benzo[d] thiazol-2-amine] | 673 | 394
Cc1c(-c2ccc(F)c3sc(N)nc23)ccc2c(N3C[C@H]4CC[C@@H](C3)N4)nc(OC[C@@]34CCCN3C[C@H](F)C4)nc12 [Example 139, 4-(4-((1R,5S)-3,8-diazabicyclo[3.2.1]octan-3-yl)-2-(((2R,7aS)-2-fluorotetrahydro-1H-pyrrolizin-7a(5H)-yl)methoxy)-8-methylquinazolin-7-yl)-7-fluorobenzo[d]thiazol-2-amine] | 11 | 3
Nc1nc2c(-c3c(Cl)cc4c(N5CCCNC(=O)C5)nc(OCC56CCCN5CCC6)nc4c3F)ccc(F)c2s1 [Example 12, 4-(7-(2-amino-7-fluorobenzo[d]thiazol-4-yl)-6-chloro-8-fluoro-2-((tetrahydro-1H-pyrrolizin-7a(5H)-yl)methoxy)quinazolin-4-yl)-1,4-diazepan-2-one] | 18 | 14
CN1CCC[C@H]1COc1nc(N2CCCNC(=O)C2)c2cc(Cl)c(-c3cccc4sc(N)nc34)c(F)c2n1 [Example 22, 4-(7-(2-aminobenzo[d]thiazol-4-yl)-6-chloro-8-fluoro-2-(((S)-1-methylpyrrolidin-2-yl)methoxy)quinazolin-4-yl)-1,4-diazepan-2-one] | 168 | 114
CC1=C(c2nc(OC[C@@H]3CCCN3C)nc3c(F)c(-c4cccc5sc(N)nc45)c(Cl)cc23)CCNC1 [Example 147, 4-(6-chloro-8-fluoro-4-(5-methyl-1,2,3,6-tetrahydropyridin-4-yl)-2-(((S)-1-methylpyrrolidin-2-yl)methoxy)quinazolin-7-yl)benzo[d]thiazol-2-amine] | 11200 | 3550
Nc1nc2c(-c3c(F)cc4c(N5C[C@@H]6CC[C@H]5CN6)nc(OC[C@@]56CCCN5C[C@H](F)C6)nc4c3F)ccc(F)c2s1 [Example 143, 4-(4-((1S,4S)-2,5-diazabicyclo[2.2.2]octan-2-yl)-6,8-difluoro-2-(((2R,7aS)-2-fluorotetrahydro-1H-pyrrolizin-7a(5H)-yl)methoxy)quinazolin-7-yl)-7-fluorobenzo[d]thiazol-2-amine] | 10 | 8
Cc1cc2c(N3CCNCC3)nc(OC[C@@H]3CCCN3C)nc2c(F)c1-c1cccc2sc(N)nc12 [Example 155, 4-(8-Fluoro-6-methyl-2-(((S)-1-methylpyrrolidin-2-yl)methoxy)-4-(piperazin-1-yl)quinazolin-7-yl)benzo[d]thiazol-2-amine] | 187 | 40
CN1CCC[C@H]1COc1nc2c(F)c(-c3ccc(F)c4sc(N)nc34)c(Cl)cc2c(N2CCNCC2)c1C#N [Example 157, 7-(2-Amino-7-fluorobenzo[d]thiazol-4-yl)-6-chloro-8-fluoro-2-(((S)-1-methylpyrrolidin-2-yl)methoxy)-4-(piperazin-1-yl)quinoline-3-carbonitrile] | 73 | 23
CN1CCC[C@H]1COc1nc(N2CCNCC2)c2cc(C#N)c(-c3cccc4sc(N)nc34)c(F)c2n1 [Example 156, 7-(2-Aminobenzo[d]thiazol-4-yl)-8-fluoro-2-(((S)-1-methylpyrrolidin-2-yl)methoxy)-4-(piperazin-1-yl)quinazoline-6-carbonitrile] | 365 | 189
CN1C[C@H](F)C[C@H]1COc1nc(N2C[C@H]3COC[C@@H](C2)N3)c2cc(Cl)c(-c3ccc(F)c4sc(N)nc34)c(F)c2n1 [Example 41, 4-(4-((1R,5S)-3-oxa-7,9-diazabicyclo[3.3.1]nonan-7-yl)-6-chloro-8-fluoro-2-(((2S,4R)-4-fluoro-1-methylpyrrolidin-2-yl)methoxy)quinazolin-7-yl)-7-fluorobenzo[d] thiazol-2-amine] | 79 | 65
CCN1CCC(Oc2nc(N3CCNCC3)c3cc(Cl)c(-c4cccc5sc(N)nc45)c(F)c3n2)CC1 [Example 128, 4-(6-chloro-2-((1-ethylpiperidin-4-yl)oxy)-8-fluoro-4-(piperazin-1-yl)quinazolin-7-yl)benzo[d]thiazol-2-amine] | 1480 | 411
